# Reference: ChEMBL document CHEMBL4837192, “The Bisindole Alkaloids Angustilongines M and A from Alstonia penangiana Induce Mitochondrial Apoptosis and G0/G1 Cell Cycle Arrest in HT-29 Cells through Promotion of Tubulin Polymerization” (J Nat Prod, 2021)
# Activity calls are given as the source filed them. No cut-off for these calls is given here.
# What was measured:
# HT-29 [1] = experiment: Induction of apoptosis in human HT-29 cells assessed as late apoptotic cells at 2.7 uM measured after 72 hrs by FITC-annexin V/propidium iodide- double staining based flow cytometry analysis (Rvb= 3.0%); assay type: functional
# HT-29 [2] = experiment: Induction of mitochondrial membrane potential loss in human HT-29 cells assessed as apoptotic cells at 2.7 uM measured after 48 hrs by JC-1 staining based flow cytometry analysis (Rvb= 8.6%); assay type: functional
# HT-29 [3] = experiment: Induction of mitochondrial membrane potential loss in human HT-29 cells assessed as healthy cells at 2.7 uM measured after 72 hrs by JC-1 staining based flow cytometry analysis (Rvb= 91.4%); assay type: functional
# HT-29 [4] = experiment: Induction of apoptosis in human HT-29 cells assessed as early apoptotic cells at 2.7 uM measured after 48 hrs by FITC-annexin V/propidium iodide- double staining based flow cytometry analysis (Rvb= 12.8%); assay type: functional
# HT-29 [5] = experiment: Antiproliferative activity in human HT-29 cells cultured as 3D spheroids assessed as gradual disaggregation of peripheral cells at IC50 measured after 48 hrs; assay type: functional, cell-based
# HT-29 [6] = experiment: Induction of cell cycle arrest in human HT-29 cells assessed as accumulation of cells at S phase at 2.7 uM measured after 48 hrs by propidium iodide staining based flow cytometry analysis (Rvb= 35.52%); assay type: functional
# HT-29 [7] = experiment: Anticlonogenic activity against human HT-29 cells assessed as inhibition of colony formation measured after 6 days by methylene blue staining based assay; assay type: functional, cell-based; details: dose 1.35-2.7 µM, time 6.0 day
# HT-29 [8] = experiment: Induction of apoptosis in human HT-29 cells assessed as viable cells at 2.7 uM measured after 48 hrs by FITC-annexin V/propidium iodide- double staining based flow cytometry analysis (Rvb= 83.8%); assay type: functional; details: read-out: Activity
# HT-29 [9] = experiment: Induction of mitochondrial membrane potential loss in human HT-29 cells assessed as healthy cells at 2.7 uM measured after 48 hrs by JC-1 staining based flow cytometry analysis (Rvb= 91.4%); assay type: functional
# HT-29 [10] = experiment: Cytotoxicity against human HT-29 cells assessed as cell growth inhibition measured after 48 hrs by MTT assay; assay type: functional, cell-based; details: HT-29, 48 h
# CCD-18Co = experiment: Cytotoxicity against human CCD-18Co cells assessed as cell growth inhibition measured after 48 hrs by MTT assay; assay type: cell-based
# HT-29 [11] = experiment: Induction of apoptosis in human HT-29 cells assessed as dead cells at 2.7 uM measured after 48 hrs by FITC-annexin V/propidium iodide- double staining based flow cytometry analysis (Rvb= 0.4%); assay type: functional
# HT-29 [12] = experiment: Induction of cell cycle arrest in human HT-29 cells assessed as accumulation of cells at G2 phase at 2.7 uM measured after 24 hrs by propidium iodide staining based flow cytometry analysis (Rvb= 9.09%); assay type: functional
# HT-29 [13] = experiment: Induction of cell cycle arrest in human HT-29 cells assessed as accumulation of cells at G1 phase at 2.7 uM measured after 24 hrs by propidium iodide staining based flow cytometry analysis (Rvb= 55.39%); assay type: functional
# HT-29 [14] = experiment: Induction of apoptosis in human HT-29 cells assessed as viable cells at 2.7 uM measured after 72 hrs by FITC-annexin V/propidium iodide- double staining based flow cytometry analysis (Rvb= 83.8%); assay type: functional; details: read-out: Activity
# HT-29 [15] = experiment: Antiproliferative activity against human HT-29 cells cultured as 3D spheroids assessed as inhibition of spheroid formation measured after 48 hrs by MTT assay; assay type: functional, cell-based; details: HT-29, 48 h
# HT-29 [16] = experiment: Induction of apoptosis in human HT-29 cells assessed as early apoptotic cells at 2.7 uM measured after 72 hrs by FITC-annexin V/propidium iodide- double staining based flow cytometry analysis (Rvb= 12.8%); assay type: functional
# HT-29 [17] = experiment: Induction of cell cycle arrest in human HT-29 cells assessed as accumulation of cells at S phase at 2.7 uM measured after 72 hrs by propidium iodide staining based flow cytometry analysis (Rvb= 35.52%); assay type: functional
# HT-29 [18] = experiment: Induction of apoptosis in human HT-29 cells assessed as dead cells at 2.7 uM measured after 72 hrs by FITC-annexin V/propidium iodide- double staining based flow cytometry analysis (Rvb= 0.4%); assay type: functional
# HT-29 [19] = experiment: Induction of cell cycle arrest in human HT-29 cells assessed as accumulation of cells at G2 phase at 2.7 uM measured after 72 hrs by propidium iodide staining based flow cytometry analysis (Rvb= 9.09%); assay type: functional
# HT-29 [20] = experiment: Induction of apoptosis in human HT-29 cells assessed as late apoptotic cells at 2.7 uM measured after 48 hrs by FITC-annexin V/propidium iodide- double staining based flow cytometry analysis (Rvb= 3.0%); assay type: functional
# HT-29 [21] = experiment: Induction of cell cycle arrest in human HT-29 cells assessed as accumulation of cells at G1 phase at 2.7 uM measured after 72 hrs by propidium iodide staining based flow cytometry analysis (Rvb= 55.39%); assay type: functional
# HT-29 [22] = experiment: Induction of apoptosis in human HT-29 cells assessed as early apoptotic cells at 2.7 uM measured after 24 hrs by FITC-annexin V/propidium iodide- double staining based flow cytometry analysis (Rvb= 12.8%); assay type: functional
# HT-29 [23] = experiment: Induction of apoptosis in human HT-29 cells assessed as viable cells at 2.7 uM measured after 24 hrs by FITC-annexin V/propidium iodide- double staining based flow cytometry analysis (Rvb= 83.8%); assay type: functional; details: read-out: Activity
# HT-29 [24] = experiment: Induction of apoptosis in human HT-29 cells assessed as dead cells at 2.7 uM measured after 24 hrs by FITC-annexin V/propidium iodide- double staining based flow cytometry analysis (Rvb= 0.4%); assay type: functional
# HT-29 [25] = experiment: Induction of apoptosis in human HT-29 cells assessed as activation of caspase-3 at 2.7 uM measured after 48 hrs by flow cytometry analysis (Rvb= 2.2%); assay type: functional
# HT-29 [26] = experiment: Induction of mitochondrial membrane potential loss in human HT-29 cells assessed as healthy cells at 2.7 uM measured after 24 hrs by JC-1 staining based flow cytometry analysis (Rvb= 91.4%); assay type: functional
# HT-29 [27] = experiment: Induction of apoptosis in human HT-29 cells assessed as activation of caspase-3 at 2.7 uM measured after 72 hrs by flow cytometry analysis (Rvb= 2.2%); assay type: functional
# HT-29 [28] = experiment: Induction of mitochondrial membrane potential loss in human HT-29 cells assessed as apoptotic cells at 2.7 uM measured after 24 hrs by JC-1 staining based flow cytometry analysis (Rvb= 8.6%); assay type: functional
# HT-29 [29] = experiment: Induction of cell cycle arrest in human HT-29 cells assessed as accumulation of cells at G2 phase at 2.7 uM measured after 48 hrs by propidium iodide staining based flow cytometry analysis (Rvb= 9.09%); assay type: functional
# HT-29 [30] = experiment: Antiproliferative activity in human HT-29 cells cultured as 3D spheroids assessed as reduction in 3D structure of spheroid morphology at IC50 measured after 48 hrs; assay type: functional, cell-based
# HT-29 [31] = experiment: Induction of cell cycle arrest in human HT-29 cells assessed as accumulation of cells at G1 phase at 2.7 uM measured after 48 hrs by propidium iodide staining based flow cytometry analysis (Rvb= 55.39%); assay type: functional
# [32] = Selectivity index, ratio of IC50 for human CCD-18Co cells to IC50 for human HT-29 cells assessed as cell growth inhibition measured after 48 hrs by MTT assay
# HT-29 [33] = experiment: Induction of apoptosis in human HT-29 cells assessed as activation of caspase-3 at 2.7 uM measured after 24 hrs by flow cytometry analysis (Rvb= 2.2%); assay type: functional
# HT-29 [34] = experiment: Induction of mitochondrial membrane potential loss in human HT-29 cells assessed as apoptotic cells at 2.7 uM measured after 72 hrs by JC-1 staining based flow cytometry analysis (Rvb= 8.6%); assay type: functional
# HT-29 [35] = experiment: Induction of apoptosis in human HT-29 cells assessed as late apoptotic cells at 2.7 uM measured after 24 hrs by FITC-annexin V/propidium iodide- double staining based flow cytometry analysis (Rvb= 3.0%); assay type: functional
# HT-29 [36] = experiment: Induction of cell cycle arrest in human HT-29 cells assessed as accumulation of cells at S phase at 2.7 uM measured after 24 hrs by propidium iodide staining based flow cytometry analysis (Rvb= 35.52%); assay type: functional
# Tubulin (Homo sapiens) = Tubulin (Homo sapiens) (UniProt P68371+Q9H4B7+P0DPH7+P68366+Q13509+Q71U36+P04350+Q3ZCM7+P07437+P68363+Q9BQE3+Q6PEY2+Q13885+Q9BVA1+Q9BUF5); experiment: Induction of tubulin polymerization in human HT-29 cells assessed as stabilization of microtubules at 10 uM by spectrophotometric analysis; assay type: cell-based
smiles,measurement,setting,value
C/C=C1/CN2CC[C@]34c5cc([C@@H](C)[C@H]6[C@@H]7C[C@H]8c9c(c%10ccccc%10n9C)C[C@@H]([C@@H]7CO[C@@H]6O)N8C)c(OC)cc5N(C)[C@H]3[C@@H]2C[C@@H]1C4C(=O)OC (some centres undefined),Activity,HT-29 [1],25.6%
same,Activity,HT-29 [2],31.2%
same,Activity,HT-29 [3],35.8%
same,Activity,HT-29 [4],28.2%
same,Activity,HT-29 [5],Active
same,Activity,HT-29 [6],23.15%
same,Activity,HT-29 [7],Dose-Dependent Effect
same,viability at 2.7 µM,HT-29 [8],61.8%
same,Activity,HT-29 [9],68.8%
same,IC50,HT-29 [10],2.5 µM
same,IC50,CCD-18Co,12.2 µM
same,Activity,HT-29 [11],0.2%
same,Activity,HT-29 [12],9.84%
same,Activity,HT-29 [13],56.04%
same,viability at 2.7 µM,HT-29 [14],25.2%
same,IC50,HT-29 [15],10 µM
same,Activity,HT-29 [16],49.1%
same,Activity,HT-29 [17],13.77%
same,Activity,HT-29 [18],0.2%
same,Activity,HT-29 [19],9.44%
same,Activity,HT-29 [20],9.9%
same,Activity,HT-29 [21],76.79%
same,Activity,HT-29 [22],13.8%
same,viability at 2.7 µM,HT-29 [23],76.2%
same,Activity,HT-29 [24],0.2%
same,Activity,HT-29 [25],8.2%
same,Activity,HT-29 [26],88.7%
same,Activity,HT-29 [27],50.2%
same,Activity,HT-29 [28],11.3%
same,Activity,HT-29 [29],9.01%
same,Activity,HT-29 [30],Active
same,Activity,HT-29 [31],67.84%
same,Ratio IC50,[32],4.88
same,Activity,HT-29 [33],1.7%
same,Activity,HT-29 [34],64.2%
same,Activity,HT-29 [35],9.8%
same,Activity,HT-29 [36],34.12%
same,Activity,Tubulin (Homo sapiens),Active
O=c1[nH]cc(F)c(=O)[nH]1 [FLUOROURACIL],IC50,HT-29 [15],25.9 µM
